Assay results: patent US20180116220A1, “NOVEL TRIAZOLE DERIVATIVES” (BAYER CROPSCIENCE AKTIENGESELLSCHAFT, priority 2015, published 2018)
Marks after values point to notes of the source that are not given here.

What was measured:
[1] = LogP by HPLC on reversed phase columns (EEC directive 79/831 Annex V.A8); assay type: physicochemical; conditions: for chromatographic logP: reversed phase HPLC column
Protocol: [table] If more than one LogP value is available within the same method, all the values are given and separated by “+”. […] Lambda-max-values were determined using UV-spectra from 200 nm to 400 nm and the peak values of the chromatographic signals. Measurement of LogP values was performed as outlined above.

Phakopsora pachyrhizi = assay: Example S: in vivo preventive Phakopsora test (soybeans); comparison vs. known compounds; conditions: rate of application 5 ppm, evaluated 7 days after inoculation
Protocol: The test is evaluated 7 days after the inoculation.

Venturia inaequalis = assay: Example R: in vivo preventive Venturia test (apples); comparison vs. known compounds; conditions: rate of application 10 ppm, evaluated 10 days after inoculation
Protocol: • Solvent: 24.5 parts by weight of acetone • 24.5 parts by weight of dimethylacetamide • Emulsifier: 1 part by weight of alkylaryl polyglycol ether
After the spray coating has dried on, the plants are inoculated with an aqueous conidia suspension of the causal agent of apple scab (Venturia inaequalis) and then remain for 1 day in an incubation cabinet at approximately 20° C. and a relative atmospheric humidity of 100%.
The plants are then placed in a greenhouse at approximately 21° C. and a relative atmospheric humidity of approximately 90%.
The test is evaluated 10 days after the inoculation.

[2] = [a] LC-UV, acidic range, 0.1% formic acid in water and acetonitrile as eluent
[3] = [b] LC-UV, neutral range, 0.001 molar ammonium acetate solution in water and acetonitrile as eluent

| SMILES | LogP [1, 2] | LogP [1, 3] | further results |
| --- | --- | --- | --- |
| OC(Cn1cncn1)(c1ccc(F)cc1F)C1(Oc2ccc(Cl)cc2)CC1 (centres unmarked) [Example I-10, 1-[1-(4-chlorophenoxy)cyclopropyl]-1-(2,4-difluorophenyl)-2-(1H-1,2,4-triazol-1-yl)ethanol] |  |  | chromatographic logP [1, 2]: 3.48; Efficacy in % (Phakopsora pachyrhizi): 95%; Efficacy in % (Venturia inaequalis): 100% |
| O=C(c1ccc(F)cc1F)C1(Oc2ccc(Br)cc2)CC1 [IV-1, [1-(4-bromophenoxy)cyclopropyl](2,4-difluorophenyl)methanone] |  |  | chromatographic logP [1, 2]: 4.32 |
| O=C(c1ccc(F)cc1F)C1(Oc2ccc(Cl)cc2)CC1 [IV-2] | 4.22^[a] |  |  |
| O=C(c1ccc(F)cc1F)C1(Oc2ccc(Cl)cc2F)CC1 [IV-3] | 4.23 | 4.24 |  |
| O=C(c1ccc(F)cc1F)C1(Oc2ccc(F)cc2Cl)CC1 [IV-4] | 4.21^[a]; 4.21^[b] | 4.21^[a]; 4.21^[b] |  |
| O=C(c1ccc(F)cc1F)C1(Oc2ccccc2F)CC1 [IV-5] | 3.73^[a] |  |  |
| O=C(c1ccc(F)cc1F)C1(Oc2ccccc2Br)CC1 [IV-6] | 4.14 | 4.19 |  |
| O=C(c1ccc(F)cc1F)C1(Oc2cccc(Br)c2)CC1 [IV-7] | 4.32 | 4.36 |  |
| O=C(c1ccc(F)cc1F)C1(Oc2ccccc2I)CC1 [IV-8] | 4.35 | 4.40 |  |
| O=C(c1ccc(F)cc1F)C1(Oc2cccc(I)c2)CC1 [IV-9] | 4.50 | 4.53 |  |
| O=C(c1ccc(F)cc1F)C1(Oc2ccc(I)cc2)CC1 [IV-10] | 4.54 | 4.57 |  |
| O=C(c1ccc(F)cc1F)C1(Oc2ccc(Br)cc2F)CC1 [IV-11] | 4.33 | 4.36 |  |
| Cc1cc(I)ccc1OC1(C(=O)c2ccc(F)cc2F)CC1 [IV-12] | 5.06 | 5.08 |  |
| N#Cc1cc(I)ccc1OC1(C(=O)c2ccc(F)cc2F)CC1 [IV-13] | 3.90 | 3.92 |  |
| Cc1cc(Br)ccc1OC1(C(=O)c2ccc(F)cc2F)CC1 [IV-14] | 4.88 | 4.87 |  |
| O=C(c1ccc(F)cc1F)C1(Oc2ccc(OC(F)(F)F)cc2)CC1 [IV-15] | 4.49 | 4.53 |  |
| O=C(c1ccc(F)cc1F)C1(Oc2ccc(SC(F)(F)F)cc2)CC1 [IV-16] | 4.86 | 4.92 |  |
| O=C(c1ccc(F)cc1F)C1(Oc2c(F)cccc2F)CC1 [IV-17] | 3.87^[a] |  |  |
| O=C(c1ccc(F)cc1F)C1(Oc2c(Cl)cccc2Cl)CC1 [IV-18] | 4.59^[a] |  |  |
| O=C(c1ccc(F)cc1F)C1(Oc2c(F)cccc2Cl)CC1 [IV-19] | 4.26^[a] |  |  |
| O=C(c1ccc(F)cc1F)C1(Oc2c(F)cccc2Br)CC1 [IV-20] | 4.34^[a] |  |  |
| O=C(c1ccc(Cl)cc1F)C1(Oc2ccc(Cl)cc2)CC1 [IV-21] | 4.75^[a] |  |  |
| O=C(c1ccc(Cl)cc1F)C1(Oc2ccc(Cl)cc2F)CC1 [IV-22] | 4.72^[a] |  |  |
| O=C(c1ccc(F)cc1F)C1(Oc2ccc(C(F)(F)F)cc2)CC1 [IV-23] | 4.44^[a] |  |  |
| O=C(c1ccc(F)cc1F)C1(Oc2cccc(Cl)c2)CC1 [IV-24] | 4.34^[a] |  |  |
| O=C(c1ccc(F)cc1F)C1(Oc2ccc(Cl)c(F)c2)CC1 [IV-25] | 4.41^[a] |  |  |
| O=C(c1ccc(F)cc1F)C1(Oc2ccc(Br)c(F)c2)CC1 [IV-26] | 3.99^[a] |  |  |
| O=C(c1ccc(F)cc1F)C1(Oc2ccc(OC(F)F)cc2)CC1 [IV-27] | 3.94^[a] |  |  |
| O=C(c1ccc(F)cc1F)C1(Oc2cccc(Cl)c2F)CC1 [IV-28] | 4.21^[a] |  |  |
